Data on 3 molecules can be found in patent US20070059311A1, “Regulation of the hedgehog signaling pathway and uses thereof” (priority 2005, published 2007).

Where only a bound is given, the exact number is not on record here.

For series [1], the system named is Huh7 cells. The series is described as follows: MTT cell growth assay. The class given is cell-based. The conditions noted are these: tomatidine, negative control. On the procedure: (§1) HCC cell cell lines (Hep3B, HepG2, HCC36, PLC/PRF/5 (identified as PLC) and Huh 7) were provided by Chiaho Shih, Tien Ko and Kui Li at UTMB. All cells were cultured in Dulbeco-modified essential medium (DMEM) with 10% FBS and antibiotics. […] In addition, the specific inhibition of hedgehog signaling in HCC cells was achieved by addition of Shh neutralizing antibodies (1 μg/ml in 0.5% FBS DMEM, Car# SC-9024, Santa Cruz Biotechnology, Santa Cruz, Calif.). […] Transient transfection of Gli1 in HCC cells was performed using LipofectAmine according to the manufacturer's recommendation (Plasmid-LipofectAmine=1:2.5). Cells with ectopic expression of Gli1 were subjected to drug treatment and to TUNEL (terminal deoxynucleotidyl transferase-mediated dUTP nick end labeling) assay.
(§2) For cell viability analysis, two methods were used: trypan Blue analysis and MTT assay. Trypan Blue analysis was performed to manufacturer's instruction (Invitrogen, CA). The percentage of trypan blue positive cell (dead cells) were calculated under a microscope and triplicates of samples for each treatment were used in a 96-well format. Twenty microliters of MTT (10 mg/ml in PBS) was added to each well (containing 100 μl cultured medium, 0.5% FBS DMEM). […] Thirty minutes later, absorbance was measured at 570 nm using a microplate reader from Molecular Devices Co., Sunnyvale, Calif. […]
In general terms: Tetrazolium dyes change colour on reduction, which living cells bring about.

For series [2], the system named is Hep3B cells. The series is described as follows: real-time PCR of hedgehog target genes Gli1 and PTCH1 after drug treatment. The class given is cell-based. The following applies: 2 μM. As for the experimental part:
as §1
(In general: Real-time PCR tracks product formation cycle by cycle.)

The subject of series [3] is Hep2G cells. Briefly: TUNNEL (TUNEL) apoptosis assay. It is filed as cell-based. The conditions noted are these: 2 μM. On the procedure: (§3) TUNEL assay was performed using a kit from Roche Biochemicals according to published procedure (Athar et al., 2004). Briefly, cells were fixed with 4% paraformaldehyde at room temperature for 1 h and permeated with 0.1% Triton X-100, 0.1% sodium citrate (freshly prepared) on ice for 2 min. After washing with PBS, each sample was incubated with 50 μl of TUNEL reaction mixture at 37° C. for 30 min. TUNEL labeled solution (without enzyme) was used as a negative control. TUNEL positive cells were counted under a fluorescent microscope. The counting was repeated three times and the percentage from each counting was calculated.

Series [4] has as its system Hep3B cells. Briefly: TUNNEL (TUNEL) apoptosis assay. The class given is cell-based. The conditions noted are these: 2 μM. On the procedure:
as §3

For series [5], the system named is Hep3B cells. Briefly: Trypan blue cell death assay. It is filed as cell-based. The conditions noted are these: KAAD-cyclopamine 2 μM. On the procedure:
as §1, §2

The subject of series [6] is liver cancer cells with activated hedgehog signaling pathway. Briefly: induction of apoptosis in liver cancer cells. The class given is cell-based. The following applies: 2 μM KAAD-cyclopamine. As for the experimental part:
as §3

Series [7] has as its system Huh 7 cells that transiently expressed Gli1. The series is described as follows: TUNEL assay in cells with ectopic expression of Gli1. It is filed as cell-based. The conditions noted are these: Huh 7 cells transiently expressing Gli1 under CMV promoter. As for the experimental part: as §3
The subject of series [8] is cells regardless of hedgehog signaling. The series is described as follows: toxicity of KAAD-cyclopamine to cells regardless of hedgehog signaling. The conditions noted are these: 5 or 10 μM. The class given is cell-based.
Series [9] relates to GI cancer cells. The following applies: GI cancer cells (Ma et al., 2006); cited from earlier work.
Series [10] deals with Huh7 cells. The series is described as follows: BrdU incorporation. The class given is cell-based.
Series [11] relates to Huh7-2-3(+) cells. The series is described as follows: real-time PCR of Gli1 in HCV replicating cells after interferon. The class given is cell-based. The conditions noted are these: Huh7-2-3(+) cells treated with interferon (giving Huh7-2-3(−) cells). An excerpt:
The activation of hedgehog signaling pathway in hepatocellular carcinoma infected with virus or bacteria was also examined. Huh7 cells are hepatocellular carcinoma cells that can support HCV replication (Scholle F. et al., 2004. Huh7-2-3(+) are Huh7 cells that allow active HCV replication and Huh7-2-3(−) cells are derived from Huh7-2-3(+) cells following interferon treatment for two weeks to prevent virus replication. SIIA are gastric cancer cells with hedgehog signaling activation and used as control.

Series [12] concerns Shh promoter. The series is described as follows: sonic hedgehog promoter activity (luciferase reporter) in HCV expressing cells. The class given is cell-based. The following applies: Huh7 cells with stable expression of HCV; HCV RNA replication inhibited by interferon treatment. An excerpt: Furthermore, the present invention also examined whether HCV RNA replication was a major trigger for activated hedgehog signaling in Hepatocellular carcinoma. In order to do so, cell lines with or without HCV RNA replication for the sonic hedgehog (shh) promoter activity were compared. The promoter activity of SHH was higher in Huh7 cells than in HepG2 cells. […] However, the shh promoter activity was reduced when the HCV RNA replication was inhibited by interferon treatment as shown in 2-3c (FIG. 7B).

On to `C[C@H]1CC[C@]2(NC1)O[C@H]1C[C@H]3[C@@H]4CC[C@H]5C[C@@H](O)CC[C@]5(C)[C@H]4CC[C@]3(C)[C@H]1[C@@H]2C` [tomatidine], for which the “cell growth (MTT assay)” value in [1] was “did not affect cell growth”. Further, the “levels of Gli1 and PTCH1 transcripts” value in [2] was “little discemible effect”. The “apoptosis (TUNNEL assay)” value in series [3] and in series [4] was “did not induce apoptosis” in each case.

Turning to KAAD-cyclopamine, the “level of cell death (Trypan blue)” value in series [5] was “increased level of cell death”. In [6], the “time within which apoptosis is induced” value was not above 12 h. In [7], the “TUNEL / sensitivity to treatment” value is “negative for TUNEL”. For the same molecule, in [8], the toxicity to cells entry is “quite toxic”. Further, the “concentration that could cause non-specific toxicity” value in series [9] was 10 µM. The “apoptosis (TUNNEL assay)” value is listed as “no detectable apoptosis” in series [3] and “apoptosis” in series [4]. Besides, the BrdU incorporation entry in [10] is reported as “reduced”.

With interferon, in series [11], the “expression of Gli1” value is recorded as “reduced”. Besides, the shh promoter activity entry in series [12] is recorded as “reduced”.
